This assay concerns the target T1, KRAS G12C 1-169, his-tagged protein, GDP-loaded (Homo sapiens, UniProt P01116, G12C).
T1 construct: KRAS G12C 1-169, his-tagged protein, GDP-loaded; His tag
Briefly: Biochemical assay: covalent modification of KRAS G12C, analysed by mass spectrometry (RapidFire/TOF or Q-Exactive). Also: time not given here. Format: binding. As to conditions: Modification activity, modification percentage from MS peak intensities. The essentials: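 GDP-loaded His-tagged KRAS G12C 1-169 (2 μM or 0.5 μM in 20 mM Hepes, 150 mM NaCl, 1 mM MgCl2) reacted with compound at 32 μM or 8 μM final (2% DMSO) for a set time, then quenched with formic acid. Percent covalent modification from deconvoluted intact-protein MS peak intensities (RapidFire/TOF or LC-Q Exactive).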
Consider `CC#CC(=O)N1CC2(CCN(c3nc(N4CCOCC4)nc(-c4c(C)ccc5[nH]ncc45)c3C#N)C2)C1` [Compound I-84, 4-(2-(but-2-ynoyl)-2,6-diazaspiro[3.4]octan-6-yl)-6-(5-methyl-1H-indazol-4-yl)-2-morpholinopyrimidine-5-carbonitrile], for which the Binding % entry was “+ (+ indicates binding activity greater than 0% and up to 50%)”.

As for `Cc1ccc2[nH]ncc2c1-c1nc(N2CCOCC2)nc(N2CCC3(CN(C(=O)/C=C/CN(C)C)C3)C2)c1C#N` [Compound I-85, (E)-4-(2-(4-(dimethylamino)but-2-enoyl)-2,6-diazaspiro[3.4]octan-6-yl)-6-(5-methyl-1H-indazol-4-yl)-2-morpholinopyrimidine-5-carbonitrile], the Binding % result is “+ (+ indicates binding activity greater than 0% and up to 50%)”.

For the compound `C=CC(=O)N1CC2(CCN(c3nc(OCCCN(C)C)nc(-c4c(C)ccc5[nH]ncc45)c3C#N)CC2)C1` [Compound I-86, 4-(2-acryloyl-2,7-diazaspiro[3.5]nonan-7-yl)-2-(3-(dimethylamino)pro-poxy)-6-(5-methyl-1H-indazol-4-yl)pyrimidine-5-carbonitrile], the Binding % entry is given as “++ (++ indicates binding activity from 50 to 85%)”.

In the case of `C=CC(=O)N1CC2(CCN(c3nc(OCCN4CC(F)(F)C4)nc(-c4c(C)ccc5[nH]ncc45)c3C#N)C2)C1` [Compound I-87, 4-(2-acryloyl-2,6-diazaspiro[3.4]octan-6-yl)-2-(2-(3,3-difluoroazetidin-1-yl)ethoxy)-6-(5-methyl-1H-indazol-4-yl)pyrimidine-5-carbonitrile], the Binding % result is recorded as “++ (++ indicates binding activity from 50 to 85%)”.

Take `C=CC(=O)N1CC2(CCN(c3nc(N4CCOCC4)nc(N4CCCc5ccccc54)c3C#N)C2)C1` [Compound I-88, 4-(2-acryloyl-2,6-diazaspiro[3.4]octan-6-yl)-6-(3,4-dihydroquinolin-1(2H)-yl)-2-morpholinopyrimidine-5-carbonitrile]: the Binding % entry is “+ (+ indicates binding activity greater than 0% and up to 50%)”.

`C=CC(=O)N1CC2(CCN(c3nc(N4CCOCC4)nc(N4CC(O)Cc5ccccc54)c3C#N)C2)C1` (centres unmarked) [Compound I-89, 4-(2-acryloyl-2,6-diazaspiro[3.4]octan-6-yl)-6-(3-hydroxy-3,4-dihydroquinolin-1(2H)-yl)-2-morpholinopyrimidine-5-carbonitrile]: the Binding % entry is “+ (+ indicates binding activity greater than 0% and up to 50%)”.

As to `C=CC(=O)N1CC2(CCN(c3nc(OC[C@@H]4CCCN4C)nc(-c4n[nH]c5ccccc45)c3C#N)C2)C1` [Compound I-90, (S)-4-(2-acryloyl-2,6-diazaspiro[3.4]octan-6-yl)-6-(1H-indazol-3-yl)-2-((1-methylpyrrolidin-2-yl)methoxy)pyrimidine-5-carbonitrile], the Binding % result is “+ (+ indicates binding activity greater than 0% and up to 50%)”.

Take `C=CC(=O)N1CC2(CCN(c3nc(OC[C@@H]4CN(C)CCO4)nc(-c4c(C)ccc5[nH]ncc45)c3C#N)C2)C1` [Compound I-91, 4-(2-acryloyl-2,6-diazaspiro[3.4]octan-6-yl)-6-(5-methyl-1H-indazol-4-yl)-2-(((S)-4-methylmorpholin-2-yl)methoxy)pyrimidine-5-carbonitrile]: the Binding % result was “++ (++ indicates binding activity from 50 to 85%)”.

As for `C=CC(=O)N1CC2(CCN(c3nc(OC[C@@H]4CCCN4C)nc(-c4cc(O)cc5ccccc45)c3C#N)C2)C1` [Compound I-92, (S)-4-(2-acryloyl-2,6-diazaspiro[3.4]octan-6-yl)-6-(3-hydroxynaphthalen-1-yl)-2-((1-methylpyrrolidin-2-yl)methoxy)pyrimidine-5-carbonitrile], the Binding % result is reported as “++ (++ indicates binding activity from 50 to 85%)”.

Regarding `C=CC(=O)N1CC2(CCN(c3nc(OCc4ccccn4)nc(-c4c(C)ccc5cn[nH]c45)c3C#N)C2)C1` [Compound I-93, 4-(2-acryloyl-2,6-diazaspiro[3.4]octan-6-yl)-6-(6-methyl-1H-indazol-7-yl)-2-(pyridin-2-ylmethoxy)pyrimidine-5-carbonitrile], the Binding % entry is “+++ (+++ indicates binding activity greater than 85%)”.

As for `C=CC(=O)N1CC2(CCN(c3nc(OC[C@@H]4CCCN4C)nc(-c4cc(C(N)=O)ccc4F)c3C#N)C2)C1` [Compound I-94, (S)-3-(6-(2-acryloyl-2,6-diazaspiro[3.4]octan-6-yl)-5-cyano-2-((1-methylpyrrolidin-2-yl)methoxy)pyrimidin-4-yl)-4-fluorobenzamide], the Binding % result is “+ (+ indicates binding activity greater than 0% and up to 50%)”.

For `C=CC(=O)N1CC2(CCN(c3nc(N4CCOCC4)nc(-c4cccc5[nH]ncc45)c3C#N)C2)C1` [Compound I-95, 4-(2-acryloyl-2,6-diazaspiro[3.4]octan-6-yl)-6-(1H-indazol-4-yl)-2-morpholinopyrimidine-5-carbonitrile], the Binding % entry was “+ (+ indicates binding activity greater than 0% and up to 50%)”.

As for `C=CC(=O)N1CC2(CCN(c3nc(N4CCOCC4)nc(-c4c(C)ccc5[nH]nc(C)c45)c3C#N)C2)C1` [Compound I-96, 4-(2-acryloyl-2,6-diazaspiro[3.4]octan-6-yl)-6-(3,5-dimethyl-1H-indazol-4-yl)-2-morpholinopyrimidine-5-carbonitrile], the Binding % entry is reported as “+++ (+++ indicates binding activity greater than 85%)”.

`C=CC(=O)N1CC2(CCN(c3nc(N4CCOCC4)nc(-c4c(C)ccc5cnn(C6CC6)c45)c3C#N)C2)C1` [Compound I-97, 4-(2-acryloyl-2,6-diazaspiro[3.4]octan-6-yl)-6-(1-cyclopropyl-6-methyl-1H-indazol-7-yl)-2-morpholinopyrimidine-5-carbonitrile]: the Binding % entry was “+ (+ indicates binding activity greater than 0% and up to 50%)”.

Regarding `C/C=C/C(=O)N1CC2(CCN(c3nc(OCc4ccccn4)nc(-c4c(C)ccc5[nH]ncc45)c3C#N)C2)C1` [Compound I-98, (E)-4-(2-(but-2-enoyl)-2,6-diazaspiro[3.4]octan-6-yl)-6-(5-methyl-1H-indazol-4-yl)-2-(pyridin-2-ylmethoxy)pyrimidine-5-carbonitrile], the Binding % result was “+ (+ indicates binding activity greater than 0% and up to 50%)”.

Consider `CC#CC(=O)N1CC2(CCN(c3nc(OCc4ccccn4)nc(-c4c(C)ccc5[nH]ncc45)c3C#N)C2)C1` [Compound I-99, 4-(2-(but-2-ynoyl)-2,6-diazaspiro[3.4]octan-6-yl)-6-(5-methyl-1H-indazol-4-yl)-2-(pyridin-2-ylmethoxy)pyrimidine-5-carbonitrile], for which the Binding % entry was “+ (+ indicates binding activity greater than 0% and up to 50%)”.

For the compound `C=CC(=O)N1CC2(CCN(c3nc(N4CCOCC4)nc(-c4cccc5ccccc45)c3C#N)C2)C1` [Compound I-100, 4-(2-acryloyl-2,6-diazaspiro[3.4]octan-6-yl)-2-morpholino-6-(naphthalen-1-yl)pyrimidine-5-carbonitrile], the Binding % result is “+ (+ indicates binding activity greater than 0% and up to 50%)”.

With `C=CC(=O)N1CC2(CCN(c3nc(OC[C@@H]4CCCN4C)nc(-c4cccc5ccccc45)c3C#N)C2)C1` [Compound I-101, (S)-4-(2-acryloyl-2,6-diazaspiro[3.4]octan-6-yl)-2-((1-methylpyrrolidin-2-yl)methoxy)-6-(naphthalen-1-yl)pyrimidine-5-carbonitrile], the Binding % entry is “+ (+ indicates binding activity greater than 0% and up to 50%)”.

For `C=CC(=O)N1CC2(CCN(c3nc(OCc4ccccn4)nc(-c4c(C)ccc5cnn(C)c45)c3C#N)C2)C1` [Compound I-102, 4-(2-acryloyl-2,6-diazaspiro[3.4]octan-6-yl)-6-(1,6-dimethyl-1H-indazol-7-yl)-2-(pyridin-2-ylmethoxy)pyrimidine-5-carbonitrile], the Binding % result is given as “++ (++ indicates binding activity from 50 to 85%)”.

As to `C=CC(=O)N1CC2(CCN(c3nc(OC[C@@H]4CCCN4C)nc(-c4c(C)ccc5cnn(C6CC6)c45)c3C#N)C2)C1` [Compound I-103, 4-(2-acryloyl-2,6-diazaspiro[3.4]octan-6-yl)-6-(1-cyclopropyl-6-methyl-1H-indazol-7-yl)-2-(((S)-1-methylpyrrolidin-2-yl)methoxy)pyrimidine-5-carbonitrile], the Binding % result was “+ (+ indicates binding activity greater than 0% and up to 50%)”.

As for `CC#CC(=O)N1CC2(CCN(c3nc(OC[C@@H]4CCCN4C)nc(-c4c(C)ccc5[nH]ncc45)c3C#N)C2)C1` [Compound I-104, 4-(2-(but-2-ynoyl)-2,6-diazaspiro[3.4]octan-6-yl)-6-(5-methyl-1H-indazol-4-yl)-2-(((S)-1-methylpyrrolidin-2-yl)methoxy)pyrimidine-5-carbontrile], the Binding % entry is “+ (+ indicates binding activity greater than 0% and up to 50%)”.

As to `C/C=C/C(=O)N1CC2(CCN(c3nc(OC[C@@H]4CCCN4C)nc(-c4c(C)ccc5[nH]ncc45)c3C#N)C2)C1` [Compound I-105, 4-(2-((E)-but-2-enoyl)-2,6-diazaspiro[3.4]octan-6-yl)-6-(5-methyl-1H-indazol-4-yl)-2-(((S)-1-methylpyrrolidin-2-yl)methoxy)pyrimidine-5-carbonitrile], the Binding % result was “+ (+ indicates binding activity greater than 0% and up to 50%)”.

Regarding `C=CC(=O)N1CC2(CCN(c3nc(OCc4ccccn4)nc(-c4c(C)ccc5cnn(C6CC6)c45)c3C#N)C2)C1` [Compound I-106, 4-(2-acryloyl-2,6-diazaspiro[3.4]octan-6-yl)-6-(1-cyclopropyl-6-methyl-1H-indazol-7-yl)-2-(pyridin-2-ylmethoxy)pyrimidine-5-carbontrile], the Binding % result is “+ (+ indicates binding activity greater than 0% and up to 50%)”.

For the origin of these results see patent US12134620B2 (ARAXES PHARMA LLC, priority 2018, dated 2024).
